Experiments:
Conditions in all cases: synthetic library passage 3, intravenous, relative to wild-type AAV9
brain [1] = assay: NGS fold enrichment of synthetic library (passage 3) in C57Bl/6 mice, first cross-species screen; assay type: in vivo
Procedure, shortened: (§1)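 Fold enrichment versus wild-type AAV9 was derived by NGS of RT-PCR-amplified RNA from nervous tissue, collected e.g. 28 days after IV dosing […]. The library (passage 3) was given to two NHPs aged 2-4 years and to 6-8-week BALB/c and C57Bl/6 mice (n=3 each).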

[2] = tested on: brain, spinal cord, and DRG of the NHPs; assay: NGS fold enrichment of synthetic library (passage 3) in NHPs, first cross-species screen; assay type: in vivo, cynomolgus macaques (Macaca fascicularis)
Procedure, shortened: as §1

brain [3] = assay: NGS fold enrichment of synthetic library (passage 3) in BALB/c mice, first cross-species screen; assay type: in vivo
Procedure, shortened: as §1

[4] = RNA from brain of C57Bl/6 mice, NGS
[5] = RNA from spinal cord of NHPs, NGS
[6] = RNA from brain of BALB/c mice, NGS

Row | Sequence | Fold enrichment over AAV9 in the brain of Mice (C57Bl/6) (brain [1]; RNA NGS, brain of C57Bl/6 mice) | Fold enrichment over AAV9 in the brain of NHPs ([2]; RNA NGS, brain of NHPs) | Fold enrichment over AAV9 in the spinal cord of NHPs ([2]; RNA NGS, spinal cord of NHPs) | Fold enrichment over AAV9 in the brain of Mice (BALB/c) (brain [3]; RNA NGS, brain of BALB/c mice) | Fold enrichment over AAV9 in the brain of Mice (C57Bl/6) (brain [1]; [4]) | Fold enrichment over AAV9 in the brain of NHPs ([2]; RNA from brain of NHPs, NGS) | Fold enrichment over AAV9 in the spinal cord of NHPs [2, 5] | Fold enrichment over AAV9 in the brain of Mice (BALB/c) (brain [3]; [6])
1 | GSGNPVSHLQNQQT | 0.583 fold | 1.121 fold | 1.037 fold | 0.310 fold | – | – | – | –
2 | GSGNYRDHEQNQQT | – | – | – | – | 0.287 fold | 1.193 fold | 7.389 fold | 0.222 fold
3 | GSGPILGQLQNQQT | 0.470 fold | 2.097 fold | 2.058 fold | 0.123 fold | – | – | – | –
4 | GSGPQSHTGQNQQT | 0.958 fold | 1.757 fold | 9.490 fold | 0.447 fold | – | – | – | –
5 | GSGPSISHGQNQQT | 0.614 fold | 1.000 fold | 0.000 fold | 0.665 fold | – | – | – | –
6 | GSGPWSAGLQNQQT | 0.700 fold | 1.067 fold | 0.947 fold | 0.539 fold | – | – | – | –
7 | GSGQAAKSSQNQQT | 0.778 fold | 1.036 fold | 0.681 fold | 0.737 fold | – | – | – | –
8 | GSGQALLSTGNQQT | – | – | – | – | 0.536 fold | 1.377 fold | 0.847 fold | 0.370 fold
9 | GSGQALSSSGNQQT | – | – | – | – | 0.894 fold | 1.351 fold | 6.860 fold | 0.931 fold
10 | GSGQARAHRGNQQT | 0.254 fold | 1.017 fold | 0.000 fold | 0.386 fold | – | – | – | –
11 | GSGQASSKSANQQT | – | – | – | – | 0.500 fold | 1.339 fold | 1.138 fold | 0.175 fold
12 | GSGQDMKQHHNQQT | 0.358 fold | 1.501 fold | 1.638 fold | 0.239 fold | – | – | – | –
13 | GSGQDRHIVQNQQT | 0.285 fold | 1.527 fold | 11.068 fold | 0.162 fold | – | – | – | –
14 | GSGQDRNIVQNQQT | 0.454 fold | 2.112 fold | 0.229 fold | 0.632 fold | – | – | – | –
15 | GSGQDVTKTGNQQT | – | – | – | – | 0.531 fold | 1.173 fold | 4.523 fold | 0.035 fold
16 | GSGQEHRSLANQQT | 0.507 fold | 1.046 fold | 0.000 fold | 0.344 fold | – | – | – | –

Row | Sequence | Fold enrichment over AAV9 in the brain of Mice (C57Bl/6) (brain [1]; RNA NGS, brain of C57Bl/6 mice) | Fold enrichment over AAV9 in the brain of NHPs ([2]; RNA NGS, brain of NHPs) | Fold enrichment over AAV9 in the spinal cord of NHPs ([2]; RNA NGS, spinal cord of NHPs) | Fold enrichment over AAV9 in the brain of Mice (BALB/c) (brain [3]; RNA NGS, brain of BALB/c mice) | Fold enrichment over AAV9 in the brain of Mice (C57Bl/6) (brain [1]; [4]) | Fold enrichment over AAV9 in the brain of NHPs ([2]; RNA from brain of NHPs, NGS) | Fold enrichment over AAV9 in the spinal cord of NHPs [2, 5] | Fold enrichment over AAV9 in the brain of Mice (BALB/c) (brain [3]; [6])
17 | GSGQFTNAGMNQQT | 0.565 fold | 2.969 fold | 0.936 fold | 0.418 fold | – | – | – | –
18 | GSGQGIHSSVNQQT | 0.632 fold | 1.981 fold | 4.873 fold | 0.634 fold | – | – | – | –
19 | GSGQGPQERGNQQT | 0.846 fold | 1.702 fold | 1.269 fold | 0.313 fold | – | – | – | –
20 | GSGQHAAPGHNQQT | – | – | – | – | 0.600 fold | 1.195 fold | 5.999 fold | 0.199 fold
21 | GSGQHLPLLGNQQT | – | – | – | – | 0.519 fold | 1.175 fold | 1.739 fold | 0.347 fold
22 | GSGQHSNQHVNQQT | – | – | – | – | 0.955 fold | 1.192 fold | 1.453 fold | 0.558 fold
23 | GSGQHSPHALNQQT | 0.885 fold | 1.064 fold | 1.412 fold | 0.573 fold | – | – | – | –
24 | GSGQHVSVANNQQT | 0.974 fold | 1.029 fold | 5.734 fold | 0.577 fold | – | – | – | –
25 | GSGQIKGKMDNQQT | 1.065 fold | 1.654 fold | 2.601 fold | 1.012 fold | – | – | – | –
26 | GSGQILHSVPNQQT | 0.398 fold | 1.752 fold | 1.316 fold | 0.240 fold | – | – | – | –
27 | GSGQIRESMGNQQT | – | – | – | – | 0.833 fold | 1.270 fold | 1.676 fold | 0.523 fold
28 | GSGQIRHSDQNQQT | 1.170 fold | 2.600 fold | 12.884 fold | 0.320 fold | – | – | – | –
29 | GSGQIRQLVDNQQT | 0.314 fold | 1.657 fold | 5.529 fold | 0.272 fold | – | – | – | –
30 | GSGQIVSTQTNQQT | 0.453 fold | 1.456 fold | 1.103 fold | 0.512 fold | – | – | – | –
31 | GSGQKMWKLDNQQT | – | – | – | – | 0.990 fold | 1.341 fold | 0.000 fold | 1.418 fold
